Measurements published in publication PMC3822589 (Journal of Cellular and Molecular Medicine, 2013).
Like-named read-outs stand apart in the source and are kept apart here.

Assays:
[1] = tested on: Jak2V617F in γ2A-FRT-TI-Jak2V617F/STAT3-YFP cells; assay: STAT3-YFP translocation assay; format: cell-based
[2] = tested on: HEL cells; assay: Cell proliferation assay; format: cell-based, human; settings: for effect on proliferation of HEL cells: 0.3 or 1 μM, 72 hrs; for IC50: Homo sapiens, HEL, 72 h, read-out: IC50 values, Proliferation assay
[3] = tested on: P-STAT5 in BA/F3-EpoR-Jak2V617F cells; assay: Western blot of phospho-STAT5 in BA/F3-EpoR-Jak2V617F cells; format: cell-based, murine; settings: 2.5 μM, 3 hrs
[4] = target: Jak2 (Homo sapiens, UniProt O60674); assay: Jak2 in vitro kinase assay; format: biochemical; settings: Caliper versus literature (Figure S5B)
[5] = tested on: Jak2V617F in HEK-V617F-STAT-Rep. cells; assay: pSTAT-ZsGreen reporter gene assay; format: cell-based
[6] = tested on: γ2A-FRT-TI-Jak2V617F/STAT3-YFP cells; assay: Nuclei size by confocal imaging and Cell Profiler; format: cell-based; settings: 24 hrs; Cell Profiler
[7] = tested on: P-STAT5 in UKE-1 cells (Jak2V617F); assay: Western blot of phospho-STAT5 in UKE-1 cells; format: cell-based; settings: 2.5 μM, 3 hrs
[8] = tested on: Jak2V617F phosphorylation (P-Jak2) in HEL cells; assay: Western blot of phospho-Jak2 in HEL cells; format: cell-based, human; settings: 0.5, 1 or 5 μM, 3 hrs
[9] = tested on: Phospho-STAT5 (P-STAT5) levels in HEL cells (Jak2V617F); assay: Western blot of phospho-STAT5 in HEL cells; format: cell-based, human; settings: for effect on phosphorylation of STAT5 (Western blot): 0.5, 1 or 5 μM, 3 hrs
[10] = tested on: HEL cells; assay: Cell size determination; format: cell-based, human; settings: 600 nM CEP701, TG101209, VX680 or 100 nM AT9283; 24, 48 or 72 hrs
[11] = tested on: phosphorylation of histone H3 (target of Aurora kinase B) in HEL cells; assay: Quantitative Western blot of phospho-histone H3 in HEL cells; format: cell-based, human; settings: HEL cells blocked with Nocodazole; 0.25, 0.5 or 1 μM; 3 hrs
[12] = tested on: 2C4, HCT-116 and K-562 cells; assay: Nuclei size in cell lines not expressing Jak2V617F; format: cell-based; settings: 500 nM; 48 hrs
[13] = tested on: HEL cells; assay: Cell cycle analysis; format: cell-based, human; settings: 500 nM CEP701, VX680, TG101209 or 100 nM AT9283
[14] = tested on: CD34+ cells of Jak2V617F-positive MPN patients; assay: Colony forming cell; format: cell-based, human; settings: single inhibitor; 12–16 days of culture
[15] = tested on: phosphorylation of histone H3 in BA/F3-EpoR-Jak2V617F cells; assay: Quantitative Western blot of phospho-histone H3 in BA/F3-EpoR-Jak2V617F cells; format: cell-based, murine; settings: BA/F3-EpoR-Jak2V617F cells blocked with Nocodazole; 0.25, 0.5 or 1 μM; 3 hrs
[16] = tested on: phosphorylation of histone H3 in UKE-1 cells; assay: Quantitative Western blot of phospho-histone H3 in UKE-1 cells; format: cell-based; settings: UKE-1 cells blocked with Nocodazole; 0.25, 0.5 or 1 μM; 3 hrs

Chain of Jak2 (O60674 whole entry): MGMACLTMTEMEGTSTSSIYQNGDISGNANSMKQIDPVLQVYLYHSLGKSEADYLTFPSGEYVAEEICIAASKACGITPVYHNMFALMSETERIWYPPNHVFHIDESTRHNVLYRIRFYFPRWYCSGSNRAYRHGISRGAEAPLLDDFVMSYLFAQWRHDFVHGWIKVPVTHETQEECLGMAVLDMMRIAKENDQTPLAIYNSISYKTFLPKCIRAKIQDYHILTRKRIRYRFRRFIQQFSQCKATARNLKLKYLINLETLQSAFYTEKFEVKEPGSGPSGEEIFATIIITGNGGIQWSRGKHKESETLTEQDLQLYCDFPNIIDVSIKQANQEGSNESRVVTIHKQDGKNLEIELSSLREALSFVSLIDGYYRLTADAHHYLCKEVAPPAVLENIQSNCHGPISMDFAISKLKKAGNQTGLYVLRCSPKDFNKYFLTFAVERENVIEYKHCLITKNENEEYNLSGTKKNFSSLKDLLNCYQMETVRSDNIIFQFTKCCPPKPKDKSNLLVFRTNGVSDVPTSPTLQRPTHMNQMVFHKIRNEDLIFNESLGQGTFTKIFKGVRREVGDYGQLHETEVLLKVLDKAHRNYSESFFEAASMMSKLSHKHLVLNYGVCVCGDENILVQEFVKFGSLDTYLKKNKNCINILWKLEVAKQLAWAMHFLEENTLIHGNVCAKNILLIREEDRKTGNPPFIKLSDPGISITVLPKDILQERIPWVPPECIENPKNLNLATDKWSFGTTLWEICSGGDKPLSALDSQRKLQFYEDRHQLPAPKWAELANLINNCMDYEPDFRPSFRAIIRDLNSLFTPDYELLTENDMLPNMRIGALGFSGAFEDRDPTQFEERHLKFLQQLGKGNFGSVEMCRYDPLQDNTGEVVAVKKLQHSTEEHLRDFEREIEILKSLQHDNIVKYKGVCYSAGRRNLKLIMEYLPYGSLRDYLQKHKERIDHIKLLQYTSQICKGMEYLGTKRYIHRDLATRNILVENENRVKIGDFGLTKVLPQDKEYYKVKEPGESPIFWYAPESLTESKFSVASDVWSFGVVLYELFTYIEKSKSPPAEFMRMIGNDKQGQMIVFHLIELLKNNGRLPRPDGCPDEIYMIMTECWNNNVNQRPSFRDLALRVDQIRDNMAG

N#CCNC(=O)c1ccc(-c2ccnc(Nc3ccc(N4CCOCC4)cc3)n2)cc1 [CYT387]
IC50 ([1]; read-out: IC50 values, STAT3-YFP translocation assay): 459 ± 126 nM
effect on proliferation of HEL cells [2]: showed the same effects but were less efficient
IC50 [2]: 1180 ± 413 nM
effect on phosphorylation of STAT5 (Western blot) [3]: efficiently decreased
divergence between own and published in vitro kinase assay IC50 [4]: greater than 10 fold
IC50 ([5]; 24 h, read-out: IC50 values, STAT-reporter gene assay): 794 ± 7 nM
concentration at which nuclei size increases [6]: did not have this effect
effect on phosphorylation of STAT5 (Western blot) [7]: efficiently decreased
effect on phosphorylation of Jak2 [8]: increased phosphorylation of Jak2
effect on phosphorylation of STAT5 (Western blot) ([9]; HEL cells): showed the same effects but were less efficient
IC50 ([9]; Homo sapiens, HEL, read-out: IC50 values, WB (P-STAT5), HEL cells, mean ± SD): ~600 nM
IC50 ([9]; read-out: IC50 values, WB (P-STAT5), HEL cells, mean ± SD): 633 ± 90 nM

Cc1cc(Nc2cc(N3CCN(C)CC3)nc(Sc3ccc(NC(=O)C4CC4)cc3)n2)[nH]n1 [VX680]
effect on HEL cell size [10]: increased in size
IC50 values, STAT3-YFP translocation assay ([1]; γ2A-FRT-TI-Jak2V617F/STAT3-YFP cells, mean ± SD): No inhibition
effect on proliferation of HEL cells [2]: very efficiently inhibited HEL cell growth
IC50 [2]: 158 ± 26 nM
effect on histone H3 phosphorylation [11]: Reduction in histone H3 phosphorylation
effect on phosphorylation of STAT5 (Western blot) [3]: did not inhibit STAT5 phosphorylation
increase in nuclei size in cell lines not expressing Jak2V617F [12]: this effect was also clearly visible
IC50 values, STAT-reporter gene assay ([5]; HEK-V617F-STAT-Rep. cells, 24 hrs, mean ± SD): No inhibition
effect on cell cycle profile [13]: emergence of an 8n peak
effect on phosphorylation of STAT5 (Western blot) [7]: did not inhibit STAT5 phosphorylation
effect on erythroid and myeloid colony growth [14]: reduced the numbers of myeloid colonies very efficiently but had less effect on erythroid colonies
effect on phosphorylation of Jak2 [8]: not observed
effect on histone H3 phosphorylation [15]: decline of histone H3 phosphorylation
effect on phosphorylation of STAT5 (Western blot) ([9]; HEL cells): did not inhibit the phosphorylation of STAT5
IC50 values, WB (P-STAT5) ([9]; HEL cells, mean ± SD): No inhibition
effect on histone H3 phosphorylation [16]: decline of histone H3 phosphorylation
